From US9695154B2, “Heteroaryl inhibitors of sumo activating enzyme” (MILLENNIUM PHARMACEUTICALS, INC., priority 2013, dated 2017)

Target: T1, recombinant human SAE enzyme (Homo sapiens, UniProt Q9UBT2)
T1 sequence (Q9UBT2 1-640): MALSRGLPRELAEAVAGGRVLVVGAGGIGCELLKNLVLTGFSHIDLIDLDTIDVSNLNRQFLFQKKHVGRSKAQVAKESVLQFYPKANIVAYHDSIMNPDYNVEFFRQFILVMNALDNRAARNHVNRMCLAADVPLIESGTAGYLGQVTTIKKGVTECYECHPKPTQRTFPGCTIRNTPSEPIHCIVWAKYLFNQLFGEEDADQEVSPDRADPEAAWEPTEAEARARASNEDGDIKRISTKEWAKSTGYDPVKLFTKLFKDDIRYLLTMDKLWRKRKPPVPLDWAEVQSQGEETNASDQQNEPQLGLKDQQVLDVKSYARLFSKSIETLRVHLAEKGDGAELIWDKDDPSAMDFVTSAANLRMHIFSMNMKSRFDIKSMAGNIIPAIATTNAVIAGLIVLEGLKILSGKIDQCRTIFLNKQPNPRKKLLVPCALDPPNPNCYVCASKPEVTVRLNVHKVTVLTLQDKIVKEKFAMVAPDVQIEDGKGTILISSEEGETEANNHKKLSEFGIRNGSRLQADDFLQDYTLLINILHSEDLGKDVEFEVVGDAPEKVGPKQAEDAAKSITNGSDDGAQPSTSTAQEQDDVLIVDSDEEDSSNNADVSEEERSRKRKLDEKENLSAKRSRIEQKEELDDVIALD
T1 sequence (Q9UBE0 1-346 partner): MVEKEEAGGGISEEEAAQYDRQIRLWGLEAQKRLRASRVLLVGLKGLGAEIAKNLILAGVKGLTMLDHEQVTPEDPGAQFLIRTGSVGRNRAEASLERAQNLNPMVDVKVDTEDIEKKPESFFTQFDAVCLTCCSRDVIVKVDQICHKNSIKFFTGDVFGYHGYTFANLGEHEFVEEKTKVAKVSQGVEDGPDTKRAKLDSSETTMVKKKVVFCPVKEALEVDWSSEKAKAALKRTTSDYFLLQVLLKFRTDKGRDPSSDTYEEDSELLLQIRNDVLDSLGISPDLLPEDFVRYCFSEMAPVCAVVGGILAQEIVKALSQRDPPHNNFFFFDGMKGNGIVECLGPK
Assay: SAE HTRF Enzyme Assay
Format: biochemical
Settings: for IC50: class symbols A-C; for inhibition at 0.111 µM: read-out: Percent Inhibition
How it was run: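 Sumoylation of Ubc9-GST by recombinant human SAE was followed by time-resolved FRET between Eu-cryptate anti-Flag and allophycocyanin anti-GST antibodies. The enzyme step used low ATP (0.5 μM) at pH 7.5 and ran 105 min at 24° C.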

[1] = compound concentration 0.111 μM

| SMILES | IC50 | inhibition at 0.111 µM [1] | Percent Inhibition (compound concentration 0.111 μM, 0.111 µM) |
| --- | --- | --- | --- |
| NS(=O)(=O)OC[C@H]1C[C@@H](Nc2ncncc2C(=O)c2ccn(Cc3ccc(Cl)s3)c2)[C@@H](F)[C@@H]1O [Compound I-189, [(1R,2R,3R,4R)-4-{[5-({1-[(5-chloro-2-thienyl)methyl]-1H-pyrrol-3-yl}carbonyl)pyrimidin-4-yl]amino}-3-fluoro-2-hydroxycyclopentyl]methyl sulfamate] | < 10 nM | 100% |  |
| NS(=O)(=O)OC[C@H]1C[C@@H](Nc2ncncc2C(=O)c2ccn(Cc3cccc(OC(F)F)c3)n2)[C@H](O)[C@@H]1O [Compound I-256, [(1R,2R,3S,4R)-4-{[5-({1-[3-(difluoromethoxy)benzyl]-1H-pyrazol-3-yl}carbonyl)pyrimidin-4-yl]amino}-2,3-dihydroxycyclopentyl]methyl sulfamate] | < 10 nM | 99% |  |
| NS(=O)(=O)OC[C@H]1C[C@@H](Nc2ncncc2C(=O)c2ccn(Cc3ccc(C(F)(F)F)cc3C(F)(F)F)n2)C[C@@H]1O [Compound I-69, [(1R,2S,4R)-4-{[5-({1-[2,4-bis(trifluoromethyl)benzyl]-1H-pyrazol-3-yl}carbonyl)pyrimidin-4-yl]amino}-2-hydroxycyclopentyl]methyl sulfamate] | 100 to 1000 nM | 39% |  |
| NS(=O)(=O)OC[C@H]1C[C@@H](Nc2ncncc2C(=O)c2ccn(Cc3c(F)cc(F)cc3F)n2)C[C@@H]1O [Compound I-286, {(1R,2S,4R)-2-hydroxy-4-[(5-{[1-(2,4,6-trifluorobenzyl)-1H-pyrazol-3-yl]carbonyl}pyrimidin-4-yl)amino]cyclopentyl}methyl sulfamate] | < 10 nM | 93% |  |
| Cn1nc(Cn2ccc(C(=O)c3cncnc3N[C@@H]3C[C@H](COS(N)(=O)=O)[C@@H](O)C3)c2)cc1C(F)(F)F [Compound I-306, [(1R,2S,4R)-2-hydroxy-4-({5-[(1-{[1-methyl-5-(trifluoromethyl)-1H-pyrazol-3-yl]methyl) 1H pyrrol-3-yl)carbonyl]pyrmidin-4-yl}amino)cyclopentyl]methyl sulfamate] | < 10 nM | 99% |  |
| CC#CCn1ccc(C(=O)c2cncnc2N[C@@H]2C[C@H](COS(N)(=O)=O)[C@@H](O)C2)n1 [Compound I-228, {(1R,2S,4R)-4-[(5-{[1-(but-2-yn-1-yl)-1H-pyrazol-3-yl]carbonyl}pyrimidin-4-yl)amino]-2-hydroxycyclopentyl}methyl sulfamate] | 10 to 100 nM | 72% |  |
| NS(=O)(=O)OC[C@H]1C[C@@H](Nc2ncncc2C(=O)c2nn(Cc3cccc(Br)c3)cc2Cl)C[C@@H]1O [Compound I-111, {(1R,2S,4R)-4-[(5-{[1-(3-Bromobenzyl)-4-chloro-1H-pyrazol-3-yl]carbonyl}pyrimidin-4-yl)amino]-2-hydroxycyclopentyl}methyl sulfamate] | < 10 nM | 91% |  |
| Cc1cc(C(=O)c2cncnc2N[C@@H]2C[C@H](COS(N)(=O)=O)[C@@H](O)C2)nn1Cc1ccccc1 [Compound I-66, [(1R,2S,4R)-4-({5-[(1-benzyl-5-methyl-1H-pyrazol-3-yl)carbonyl]pyrimidin-4-yl}amino)-2-hydroxycyclopentyl]methyl sulfamate] | < 10 nM | 98% |  |
| CC(c1ccc(Cl)o1)n1ccc(C(=O)c2cncnc2N[C@@H]2C[C@H](COS(N)(=O)=O)[C@@H](O)C2)n1 (single isomer, unassigned) [Compound I-79, [(1R,2S,4R)-4-{[5-({1-[(1S)-1-(5-chloro-2-furyl)ethyl]-1H-pyrazol-3-yl}carbonyl)pyrimidin-4-yl]amino}-2-hydroxycyclopentyl]methyl sulfamate or [(1R,2S,4R)-4-{[5-({1-[(1R)-1-(5-chloro-2-furyl)ethyl]-1H-pyrazol-3-yl}carbonyl)pyrimidin-4-yl]amino}-2-hydroxycyclopentyl]methyl sulfamate] | < 10 nM |  | 98% |
| NS(=O)(=O)OC[C@H]1C[C@@H](Nc2ncncc2C(=O)c2cc(C(F)(F)F)n(Cc3ccccc3)c2)[C@@H](F)[C@@H]1O [Compound I-94, {(1R,2R,3R,4R)-4-[(5-{[1-Benzyl-5-(trifluoromethyl)-1H-pyrrol-3-yl]carbonyl}pyrimidin-4-yl)amino]-3-fluoro-2-hydroxycyclopentyl}methyl sulfamate] | < 10 nM | 97% |  |
| CC(C)(c1ccccc1)n1ccc(C(=O)c2cncnc2N[C@@H]2C[C@H](COS(N)(=O)=O)[C@@H](O)C2)c1 [Compound I-76, {(1R,2S,4R)-2-hydroxy-4-[(5-{[1-(2-phenylpropan-2-yl)-1H-pyrrol-3-yl]carbonyl}pyrimidin-4-yl)amino]cyclopentyl}methyl sulfamate] | 10 to 100 nM | 80% |  |
| NS(=O)(=O)OC[C@H]1C[C@@H](Nc2ncncc2C(=O)c2ccn(Cc3ccc(C(F)F)o3)n2)C[C@@H]1O [Compound I-235, [(1R,2S,4R)-4-({5-[(1-{[5-(difluoromethyl)-2-furyl]methyl}-1H-pyrazol-3-yl)carbonyl]pyrimidin-4-yl}amino)-2-hydroxycyclopentyl]methyl sulfamate] | < 10 nM | 100% |  |
| NS(=O)(=O)OC[C@H]1C[C@@H](Nc2ncncc2C(=O)c2ccn(CC#CC3(O)COC3)n2)C[C@@H]1O [Compound I-275, [(1R,2S,4R)-2-hydroxy-4-{[5-({1-[3-(3-hydroxyoxetan-3-yl)prop-2-yn-1-yl]-1H-pyrazol-3-yl}carbonyl)pyrimidin-4-yl]amino}cyclopentyl]methyl sulfamate] | 100 to 1000 nM | 18% |  |
| NS(=O)(=O)OC[C@H]1C[C@@H](Nc2ncncc2C(=O)c2ccn(Cc3ccc(Cl)c(Br)c3)n2)[C@@H](F)[C@@H]1O [Compound I-127, {(1R,2R,3R,4R)-4-[(5-{[1-(3-bromo-4-chlorobenzyl)-1H-pyrazol-3-yl]carbonyl}pyrimidin-4-yl)amino]-3-fluoro-2-hydroxycyclopentyl}methyl sulfamate] | < 10 nM | 99% |  |
| NS(=O)(=O)OC[C@H]1C[C@@H](Nc2ncncc2C(=O)c2ccn(Cc3ccc(F)c(C(F)(F)F)c3)c2)C[C@@H]1O [Compound I-21, [(1R,2S,4R)-4-{[5-({1-[4-fluoro-3-(trifluoromethyl)benzyl]-1H-pyrrol-3-yl}carbonyl)pyrimidin-4-yl]amino}-2-hydroxycyclopentyl]methyl sulfamate] | < 10 nM | 99% |  |
| NS(=O)(=O)OC[C@H]1C[C@@H](Nc2ncncc2C(=O)c2cc(C(F)(F)F)n(Cc3cccc(Cl)c3)n2)[C@@H](F)[C@@H]1O [Compound I-316, {(1R,2R,3R,4R)-4-[(5-{[1-(3-Chlorobenzyl)-5-(trifluoromethyl)-1H-pyrazol-3-yl]carbonyl}pyrimidin-4-yl)amino]-3-fluoro-2-hydroxycyclopentyl}methyl sulfamate] | < 10 nM | 94% |  |
